Measurements published in patent US20220218627A1 (priority 2019, published 2022).

Tests used:
[1] = test system: Cluster headache patients; details: human, in vivo
[2] = in vivo; cited from earlier work
[3] = test system: pediatric procedural pain; details: in vivo; cited from earlier work
[4] = test system: acute traumatic pain; details: in vivo; cited from earlier work
[5] = test system: major depressive disorder; details: in vivo; cited from earlier work
[6] = test system: migraine or Cluster headache patients; details: in vivo, iv; cited from earlier work

SMILES: CCCC(CCC)C(=O)O [Depacon]
- Case 3: success in shutting the cluster episode down ([1]; iv): only partial success

SMILES: CNC1(c2ccccc2Cl)CCCCC1=O (stereo not drawn) [ketamine, 2-(2-chlorophenyl)-2-(methylamino)cyclohexanone]
- Case 1: number of sprays after which patient reported feeling better [1]: 2-3 sprays
- Case 1: side effects (dysphoria, out-of-body) [1]: no side effects
- Case 2: cluster headache episode frequency over about a year [1]: beginning to get less frequent
- Case 3: long-term course of cluster headache episodes [1]: only had one short cluster headache episode in the last three to four years
- Cases 1-3: change from initial baseline on 0 to 10 Visual Analogue Scale (VAS) [1]: above 65%
- Cases 1-3: dysphoria or nausea [1]: Increased dysphoria or nausea was not noted
- Cases 1-3: out-of-body experiences or hallucinations [1]: No out-off body experiences, or hallucinations were observed
- Case 1: outcome of IV treatment on cluster headaches ([1]; iv): complete cessation of the cluster headaches in three days
- Case 2: change in cluster headache frequency ([1]; iv): from 5 episodes per day to only one cluster headache in the next week
- Case 3: shortening of the duration of the cluster episode ([1]; iv): greater than two-thirds
- terminal plasma half-life [2]: 2 to 3 h
- time to peak plasma concentrations [2]: 10 to 15 min
- onset of analgesia [3]: rapid onset of analgesia
- side effects [3]: only slight sedation
- efficacy in pain treatment compared to morphine IV or IM [4]: equal efficient in pain treatment
- hallucinations or out-of-body experience [4]: No patients complained of hallucinations or out of-body experience
- side effects [4]: mainly dizziness
- time to onset [4]: approx. 15 min
- effect on depressive symptoms [5]: rapid improvement of the depressive symptoms
- serious adverse effects [5]: No serious adverse effects occurred
- patients complaining of spaciness, fearfulness, jitteriness or lack of personal control [6]: approximately 43%
- patients experiencing nausea at some point during treatment [6]: 3.2%

SMILES: CCN(CC)CC(=O)Nc1c(C)cccc1C [lidocaine]
- Case 3: success in shutting the cluster episode down ([1]; iv): only partial success
